The solubility (thermodynamic) is solubility found after equilibrating the solid with the medium. For orientation: solubility means the concentration that dissolves in the medium under given conditions. Lower therefore signals little dissolved substance.

A short description of data set [1]: Effect of arylcarboxylic acid on solubility of pyridonecarboxylic acid - 1 (Table 1). It counts as physicochemical. The note with it: 0.1% aqueous sodium dihydrogenphosphate, 25° C., one week. How it is done:
Experimental Example 1: Effect of arylcarboxylic acid on solubility of pyridonecarboxylic acid - 1
(§1) To a 0.1% aqueous sodium dihydrogenphosphate solution (100 ml) containing pranoprofen, ibuprofen or bromfenac was added norfloxacin or enoxacin in excess, and the pH thereof was adjusted to 7-8 with hydrochloric acid or sodium hydroxide. The mixture was shaken for one week at 25° C. and filtered through a 0.45 μm membrane filter, which was followed by the determination of a norfloxacin or enoxacin content by high performance liquid chromatography.

Data set [2] in a line: Effect of arylcarboxylic acid on solubility of pyridonecarboxylic acid - 2 (Table 2). It counts as physicochemical. The note with it: 0.1% aqueous sodium dihydrogenphosphate, 25° C., one week. As to the method: Experimental Example 2: Effect of arylcarboxylic acid on solubility of pyridonecarboxylic acid - 2
(§2) To a 0.1% aqueous sodium dihydrogenphosphate solution (100 ml) containing 2-naphthoic acid, 2-naphthylacetic acid or 2-naphthoxyacetic acid was added norfloxacin or enoxacin in excess, and the pH thereof was adjusted to 8-9 with hydrochloric acid or sodium hydroxide. The mixture was shaken for one week at 25° C. and filtered through a 0.45 μm membrane filter, which was followed by the determination of a norfloxacin or enoxacin content by high performance liquid chromatography.

Data set [3] is described as follows: Increase of solubility by addition of arylcarboxylic acid (Tables 1 to 3). It counts as physicochemical. The note with it: about, addition of at least one arylcarboxylic acid (pranoprofen, ibuprofen, diclofenac, bromfenac, 2-naphthoic, 2-naphthylacetic, 2-naphthoxyacetic acid). How it is done: as §1, §2
(§3) To a 0.1% aqueous sodium dihydrogenphosphate solution (100 ml) containing pranoprofen, ibuprofen, diclofenac, bromfenac, 2-naphthoic acid, 2-naphthylacetic acid or 2-naphthoxyacetic acid was added lomefloxacin in excess, and the pH thereof was adjusted to 8-9 with hydrochloric acid or sodium hydroxide. The mixture was shaken for one week at 25° C. and filtered through a 0.45 μm membrane filter, which was followed by the determination of a lomefloxacin content by high performance liquid chromatography.

A short description of data set [4]: Effect of arylcarboxylic acid on solubility of pyridonecarboxylic acid - 3 (Table 3). The note with it: 0.1% aqueous sodium dihydrogenphosphate, 25° C., one week. The format is physicochemical. How it is done: Experimental Example 3: Effect of arylcarboxylic acid on solubility of pyridonecarboxylic acid - 3
as §3

Where [5] appears, read: pH 7, bromfenac added, pH 7, 0.1% aqueous sodium dihydrogenphosphate.
Where [6] appears, read: pH 7, ibuprofen added, pH 7, 0.1% aqueous sodium dihydrogenphosphate.
[7] abbreviates: pH 7, pranoprofen added, pH 7, 0.1% aqueous sodium dihydrogenphosphate.
The mark [8] stands for this setting: pH 7, without addition, pH 7, 0.1% aqueous sodium dihydrogenphosphate.
Where [9] appears, read: pH 8, bromfenac added, pH 8, 0.1% aqueous sodium dihydrogenphosphate.
Where [10] appears, read: pH 8, ibuprofen added, pH 8, 0.1% aqueous sodium dihydrogenphosphate.
[11] abbreviates: pH 8, pranoprofen added, pH 8, 0.1% aqueous sodium dihydrogenphosphate.
Where [12] appears, read: pH 8, without addition, pH 8, 0.1% aqueous sodium dihydrogenphosphate.
[13] abbreviates: pH 8, 2-naphthoic acid added, pH 8, 0.1% aqueous sodium dihydrogenphosphate.
Where [14] appears, read: pH 8, 2-naphthoxyacetic acid added, pH 8, 0.1% aqueous sodium dihydrogenphosphate.
Where [15] appears, read: pH 8, 2-naphthylacetic acid added, pH 8, 0.1% aqueous sodium dihydrogenphosphate.
[16] abbreviates: pH 9, 2-naphthoic acid added, pH 9, 0.1% aqueous sodium dihydrogenphosphate.
Setting [17] is: pH 9, 2-naphthoxyacetic acid added, pH 9, 0.1% aqueous sodium dihydrogenphosphate.
Where [18] appears, read: pH 9, 2-naphthylacetic acid added, pH 9, 0.1% aqueous sodium dihydrogenphosphate.
The mark [19] stands for this setting: pH 9, without addition, pH 9, 0.1% aqueous sodium dihydrogenphosphate.

SMILES strings stand for the structures. Values after ≈ are worked out from the molar mass of the structure shown.

`CCn1cc(C(=O)O)c(=O)c2cc(F)c(N3CCNCC3)cc21` [norfloxacin, 1-ethyl-6-fluoro-1,4-dihydro-4-oxo-7-(1-piperazinyl)-3-quinolinecarboxylic acid]: the thermodynamic solubility at 168 h in data set [1] (setting [5]) was 410 µg/mL (≈ 1280 µM); in data set [1] (setting [6]), 430 µg/mL (≈ 1350 µM); in data set [1] (setting [7]) it was 1810 µg/mL (≈ 5670 µM); in data set [1] (setting [8]), 400 µg/mL (≈ 1250 µM); in data set [1] (setting [9]) it was 540 µg/mL (≈ 1690 µM); in data set [1] (setting [10]), 420 µg/mL (≈ 1320 µM). For the same compound, the solubility (thermodynamic) at 168 h in data set [1] (setting [11]) worked out at 810 µg/mL (≈ 2540 µM); in data set [1] (setting [12]) it was 360 µg/mL (≈ 1130 µM); in data set [2] (setting [13]), 920 µg/mL (≈ 2880 µM); in data set [2] (setting [14]), 750 µg/mL (≈ 2350 µM); in data set [2] (setting [15]) it was 580 µg/mL (≈ 1820 µM); in data set [2] (setting [12]), 360 µg/mL (≈ 1130 µM). Besides, the solubility (thermodynamic) at 168 h in data set [2] (setting [16]) was found to be 1590 µg/mL (≈ 4980 µM); in data set [2] (setting [17]), 1600 µg/mL (≈ 5010 µM); in data set [2] (setting [18]), 2060 µg/mL (≈ 6450 µM); in data set [2] (setting [19]) it was 1060 µg/mL (≈ 3320 µM). The “increase of solubility by addition of arylcarboxylic acid” value (from here on “increase of solubility”) in data set [3] is listed as 1.5-3 times. Besides, the solubility in “physchem” (0.1% phosphate buffer, pH 8) worked out at 360 µg/mL (≈ 1130 µM); in “physchem” (1.6% borate buffer, pH 7) it was 390 µg/mL (≈ 1220 µM).
`CCn1cc(C(=O)O)c(=O)c2cc(F)c(N3CCNC(C)C3)c(F)c21` (stereo not shown) [lomefloxacin, 1-ethyl-6,8-difluoro-1,4-dihydro-7-(3-methyl-1-piperazinyl)-4-oxo-3-quinolinecarboxylic acid]: the thermodynamic solubility at 168 h in data set [4] (setting [13]) was found to be 2300 µg/mL (≈ 6550 µM); in data set [4] (setting [14]), 2040 µg/mL (≈ 5810 µM); in data set [4] (setting [15]), 1800 µg/mL (≈ 5120 µM); in data set [4] (pH 8, diclofenac added, pH 8, 0.1% aqueous sodium dihydrogenphosphate), 1390 µg/mL (≈ 3960 µM); in data set [4] (setting [11]), 2140 µg/mL (≈ 6090 µM); in data set [4] (setting [12]), 1180 µg/mL (≈ 3360 µM). In addition, the thermodynamic solubility at 168 h in data set [4] (pH 9, bromfenac added, pH 9, 0.1% aqueous sodium dihydrogenphosphate) turned out to be 4700 µg/mL (≈ 13400 µM); in data set [4] (pH 9, diclofenac added, pH 9, 0.1% aqueous sodium dihydrogenphosphate), 3330 µg/mL (≈ 9480 µM); in data set [4] (pH 9, ibuprofen added, pH 9, 0.1% aqueous sodium dihydrogenphosphate), 3500 µg/mL (≈ 9960 µM); in data set [4] (setting [19]), 3000 µg/mL (≈ 8540 µM). Further, the “increase of solubility” value in data set [3] is listed as 1.5-3 times.
In the case of `CCn1cc(C(=O)O)c(=O)c2cc(F)c(N3CCNCC3)nc21` [enoxacin, 1-ethyl-6-fluoro-1,4-dihydro-4-oxo-7-(1-piperazinyl)-1,8-naphthyridine-3-carboxylic acid], the solubility (thermodynamic) at 168 h came out at 320 µg/mL (≈ 999 µM) in data set [1] (setting [5]); 300 µg/mL (≈ 937 µM) in data set [1] (setting [6]); 780 µg/mL (≈ 2440 µM) in data set [1] (setting [7]); 260 µg/mL (≈ 812 µM) in data set [1] (setting [8]); 350 µg/mL (≈ 1090 µM) in data set [1] (setting [9]); 280 µg/mL (≈ 874 µM) in data set [1] (setting [10]). Moreover, the solubility (thermodynamic) at 168 h is 630 µg/mL (≈ 1970 µM) in data set [1] (setting [11]); 250 µg/mL (≈ 780 µM) in data set [1] (setting [12]); 540 µg/mL (≈ 1690 µM) in data set [2] (setting [13]); 470 µg/mL (≈ 1470 µM) in data set [2] (setting [14]); 420 µg/mL (≈ 1310 µM) in data set [2] (setting [15]); 250 µg/mL (≈ 780 µM) in data set [2] (setting [12]). In addition, the solubility (thermodynamic) at 168 h was 1190 µg/mL (≈ 3710 µM) in data set [2] (setting [16]), 990 µg/mL (≈ 3090 µM) in data set [2] (setting [17]), 830 µg/mL (≈ 2590 µM) in data set [2] (setting [18]) and 710 µg/mL (≈ 2220 µM) in data set [2] (setting [19]). The “increase of solubility” value in data set [3] is listed as 1.5-3 times. Moreover, the solubility in “physchem” (0.1% phosphate buffer, pH 7) amounted to 280 µg/mL (≈ 874 µM); in “physchem” (1.6% borate buffer, pH 6) it was 1700 µg/mL (≈ 5310 µM).

These data come from patent US5942508A, “Method for solubilizing pyridonecarboxylic acid solubilizer thereof and aqueous solution containing solubilized pyridonecarboxylic acid” (Senju Pharmaceutical Co., Ltd., priority 1997, dated 1999).
